According to ChEMBL document CHEMBL2375302, “Synthesis, antimicrobial, antiquorum-sensing, antitumor and cytotoxic activities of new series of fused [1,3,4]thiadiazoles” (Eur J Med Chem, 2013):
Values after ≈ are worked out from the molar mass of the structure shown.

Tests used:
[1] = Toxicity against brine shrimp larvae assessed as mortality at 100 ug/mL after 24 hrs by binocular microscopic analysis relative to control; type: organism-based; conditions: artemia salina, in vivo
[2] = system: Chromobacterium violaceum; experiment: Antiquorum-sensing activity against Chromobacterium violaceum ATCC 12472 after 48 hrs; type: functional
[3] = (§1) Toxicity against brine shrimp larvae assessed as mortality after 24 hrs by binocular microscopic analysis; type: organism-based; conditions: artemia salina, in vivo
Artemia salina = experiment: as §1; type: organism-based; conditions: in vivo, 24 h
[4] = Toxicity against brine shrimp larvae assessed as mortality at 1000 ug/mL after 24 hrs by binocular microscopic analysis relative to control; type: organism-based; conditions: artemia salina, in vivo
Aspergillus fumigatus = experiment: Antifungal activity against Aspergillus fumigatus Af293 at 5 mg/mL after 48 hrs; type: functional; conditions: Af293, 48 h, read-out: DIZ
Candida albicans = experiment: Antifungal activity against Candida albicans at 5 mg/mL after 48 hrs; type: functional; conditions: read-out: DIZ
Escherichia coli = experiment: Antibacterial activity against Escherichia coli at 5 mg/mL after 24 hrs; type: functional; conditions: read-out: DIZ
Bacillus cereus = experiment: Antibacterial activity against Bacillus cereus at 5 mg/mL after 24 hrs; type: functional; conditions: read-out: DIZ
[5] = Toxicity against brine shrimp larvae assessed as mortality at 500 ug/mL after 24 hrs by binocular microscopic analysis relative to control; type: organism-based; conditions: artemia salina, in vivo
Aspergillus flavus = experiment: Antifungal activity against Aspergillus flavus 3372 at 5 mg/mL after 48 hrs; type: functional; conditions: Aspergillus flavus, 3372, 48 h; read-out: DIZ
Staphylococcus aureus = experiment: Antibacterial activity against Staphylococcus aureus at 5 mg/mL after 24 hrs; type: functional; conditions: read-out: DIZ
[6] = Toxicity against brine shrimp larvae assessed as mortality at 10 ug/mL after 24 hrs by binocular microscopic analysis relative to control; type: organism-based; conditions: artemia salina, in vivo

## CCOC(=O)C1C(=O)N=C2SC(S(N)(=O)=O)=NN2C1c1ccc(Cl)cc1 (stereo unspecified)
[1]
  mortality at 24 h, 100 ug/mL: 53.3%
[2]
  diameter of the inhibition zone (DIZ): 11 mm
[3]
  LC50 at 24 h: 508 µg/mL (≈ 1220 µM)
Artemia salina
  LC90: 914.63 µg/mL (≈ 2190 µM)
[4]
  mortality at 24 h, 1000 ug/mL: 83.3%
Aspergillus fumigatus
  zone of inhibition at 5000 µg/mL: < 2 mm
Candida albicans
  zone of inhibition at 5000 µg/mL: < 2 mm
Escherichia coli
  zone of inhibition at 5000 µg/mL: < 2 mm
Bacillus cereus
  zone of inhibition at 5000 µg/mL: 4 mm
[5]
  mortality at 24 h, 500 ug/mL: 70%
Aspergillus flavus
  zone of inhibition at 5000 µg/mL: < 2 mm
Staphylococcus aureus
  zone of inhibition at 5000 µg/mL: 3 mm
[6]
  mortality at 24 h, 10 ug/mL: 36.6%

## NS(=O)(=O)C1=NN2C(=NC(=O)/C2=C\c2ccc(Br)cc2)S1
[1]
  mortality at 24 h, 100 ug/mL: 40%
[2]
  diameter of the inhibition zone (DIZ): <2 mm
[3]
  LC50 at 24 h: 551 µg/mL (≈ 1420 µM)
Artemia salina
  LC90: 992.28 µg/mL (≈ 2560 µM)
[4]
  mortality at 24 h, 1000 ug/mL: 80%
Aspergillus fumigatus
  zone of inhibition at 5000 µg/mL: < 2 mm
Candida albicans
  zone of inhibition at 5000 µg/mL: 8 mm
Escherichia coli
  zone of inhibition at 5000 µg/mL: < 2 mm
Bacillus cereus
  zone of inhibition at 5000 µg/mL: 2 mm
[5]
  mortality at 24 h, 500 ug/mL: 60%
Aspergillus flavus
  zone of inhibition at 5000 µg/mL: < 2 mm
Staphylococcus aureus
  zone of inhibition at 5000 µg/mL: 2 mm
[6]
  mortality at 24 h, 10 ug/mL: 23.3%

## Cc1ccc(/N=N/c2c(N)n3nc(S(N)(=O)=O)sc3nc2=O)cc1
[1]
  mortality at 24 h, 100 ug/mL: 96.6%
[2]
  diameter of the inhibition zone (DIZ): 12 mm
[3]
  LC50 at 24 h: 392 µg/mL (≈ 1070 µM)
Artemia salina
  LC90: 706.43 µg/mL (≈ 1930 µM)
[4]
  mortality at 24 h, 1000 ug/mL: 100%
Aspergillus fumigatus
  zone of inhibition at 5000 µg/mL: 6 mm
Candida albicans
  zone of inhibition at 5000 µg/mL: 12 mm
Escherichia coli
  zone of inhibition at 5000 µg/mL: 4 mm
Bacillus cereus
  zone of inhibition at 5000 µg/mL: 3 mm
[5]
  mortality at 24 h, 500 ug/mL: 100%
Aspergillus flavus
  zone of inhibition at 5000 µg/mL: 5 mm
Staphylococcus aureus
  zone of inhibition at 5000 µg/mL: 8 mm
[6]
  mortality at 24 h, 10 ug/mL: 90%

## COc1ccc2c(c1)CCC1=C2N=C2SC(S(N)(=O)=O)=NN2C1c1ccc(OC)c(OC)c1 (stereo unspecified)
[1]
  mortality at 24 h, 100 ug/mL: 63.3%
[3]
  LC50 at 24 h: 455 µg/mL (≈ 936 µM)
Artemia salina
  LC90: 819.67 µg/mL (≈ 1680 µM)
[4]
  mortality at 24 h, 1000 ug/mL: 93.3%
[5]
  mortality at 24 h, 500 ug/mL: 76.6%
[6]
  mortality at 24 h, 10 ug/mL: 46.6%

## NS(=O)(=O)C1=NN2CCC(=O)N=C2S1
[1]
  mortality at 24 h, 100 ug/mL: 90%
[2]
  diameter of the inhibition zone (DIZ): <2 mm
[3]
  LC50 at 24 h: 399 µg/mL (≈ 1700 µM)
Artemia salina
  LC90: 717.7 µg/mL (≈ 3060 µM)
[4]
  mortality at 24 h, 1000 ug/mL: 100%
Aspergillus fumigatus
  zone of inhibition at 5000 µg/mL: 8 mm
Candida albicans
  zone of inhibition at 5000 µg/mL: 12 mm
Escherichia coli
  zone of inhibition at 5000 µg/mL: 11 mm
Bacillus cereus
  zone of inhibition at 5000 µg/mL: 4 mm
[5]
  mortality at 24 h, 500 ug/mL: 96.6%
Aspergillus flavus
  zone of inhibition at 5000 µg/mL: 10 mm
Staphylococcus aureus
  zone of inhibition at 5000 µg/mL: 16 mm
[6]
  mortality at 24 h, 10 ug/mL: 70%

## COc1ccc(/C=C2\C(=O)N=C3SC(S(N)(=O)=O)=NN32)cc1OC
[1]
  mortality at 24 h, 100 ug/mL: 76.6%
[2]
  diameter of the inhibition zone (DIZ): <2 mm
[3]
  LC50 at 24 h: 425 µg/mL (≈ 1150 µM)
Artemia salina
  LC90: 765.3 µg/mL (≈ 2080 µM)
[4]
  mortality at 24 h, 1000 ug/mL: 96.6%
Aspergillus fumigatus
  zone of inhibition at 5000 µg/mL: 16 mm
Candida albicans
  zone of inhibition at 5000 µg/mL: 4 mm
Escherichia coli
  zone of inhibition at 5000 µg/mL: < 2 mm
Bacillus cereus
  zone of inhibition at 5000 µg/mL: 4 mm
[5]
  mortality at 24 h, 500 ug/mL: 86.6%
Aspergillus flavus
  zone of inhibition at 5000 µg/mL: 7 mm
Staphylococcus aureus
  zone of inhibition at 5000 µg/mL: 4 mm
[6]
  mortality at 24 h, 10 ug/mL: 63.3%

## COc1ccc(C2C(C#N)C(=O)N=C3SC(S(N)(=O)=O)=NN32)cc1OC (stereo unspecified)
[1]
  mortality at 24 h, 100 ug/mL: 50%
[2]
  diameter of the inhibition zone (DIZ): 8 mm
[3]
  LC50 at 24 h: 598 µg/mL (≈ 1510 µM)
Artemia salina
  LC90: 1076.55 µg/mL (≈ 2720 µM)
[4]
  mortality at 24 h, 1000 ug/mL: 70%
Aspergillus fumigatus
  zone of inhibition at 5000 µg/mL: 8 mm
Candida albicans
  zone of inhibition at 5000 µg/mL: 24 mm
Escherichia coli
  zone of inhibition at 5000 µg/mL: < 2 mm
Bacillus cereus
  zone of inhibition at 5000 µg/mL: 9 mm
[5]
  mortality at 24 h, 500 ug/mL: 60%
Aspergillus flavus
  zone of inhibition at 5000 µg/mL: < 2 mm
Staphylococcus aureus
  zone of inhibition at 5000 µg/mL: 10 mm
[6]
  mortality at 24 h, 10 ug/mL: 36.6%

## COc1ccc2c(c1)CCC1=C2N=C2SC(S(N)(=O)=O)=NN2C1c1ccc(Br)cc1 (stereo unspecified)
[2]
  diameter of the inhibition zone (DIZ): <2 mm
Aspergillus fumigatus
  zone of inhibition at 5000 µg/mL: 6 mm
Candida albicans
  zone of inhibition at 5000 µg/mL: 14 mm
Escherichia coli
  zone of inhibition at 5000 µg/mL: < 2 mm
Bacillus cereus
  zone of inhibition at 5000 µg/mL: < 2 mm
Aspergillus flavus
  zone of inhibition at 5000 µg/mL: < 2 mm
Staphylococcus aureus
  zone of inhibition at 5000 µg/mL: < 2 mm

## N=c1cc(N)n2nc(S(N)(=O)=O)sc2n1
[2]
  diameter of the inhibition zone (DIZ): <2 mm
Aspergillus fumigatus
  zone of inhibition at 5000 µg/mL: < 2 mm
Candida albicans
  zone of inhibition at 5000 µg/mL: < 2 mm
Escherichia coli
  zone of inhibition at 5000 µg/mL: < 2 mm
Bacillus cereus
  zone of inhibition at 5000 µg/mL: < 2 mm
Aspergillus flavus
  zone of inhibition at 5000 µg/mL: < 2 mm
Staphylococcus aureus
  zone of inhibition at 5000 µg/mL: < 2 mm

## Nc1c(/N=N/c2ccccc2)c(=O)nc2sc(S(N)(=O)=O)nn12
[1]
  mortality at 24 h, 100 ug/mL: 80%
[2]
  diameter of the inhibition zone (DIZ): <2 mm
[3]
  LC50 at 24 h: 419 µg/mL (≈ 1190 µM)
Artemia salina
  LC90: 755.03 µg/mL (≈ 2150 µM)
[4]
  mortality at 24 h, 1000 ug/mL: 96.6%
Aspergillus fumigatus
  zone of inhibition at 5000 µg/mL: < 2 mm
Candida albicans
  zone of inhibition at 5000 µg/mL: 4 mm
Escherichia coli
  zone of inhibition at 5000 µg/mL: 10 mm
Bacillus cereus
  zone of inhibition at 5000 µg/mL: 7 mm
[5]
  mortality at 24 h, 500 ug/mL: 90%
Aspergillus flavus
  zone of inhibition at 5000 µg/mL: < 2 mm
Staphylococcus aureus
  zone of inhibition at 5000 µg/mL: 7 mm
[6]
  mortality at 24 h, 10 ug/mL: 66.6%
